Measured values: ChEMBL document CHEMBL1157392, “A cycloartane incorporating a fused tetrahydrofuran ring and a cytotoxic lactam from Monocarpia marginalis” (J Nat Prod, 2008)
Values after ≈ are worked out from the molar mass of the structure shown.

Assays:
Type in all cases: functional, cell-based
[1] = tested on: KB; experiment: Cytotoxicity against drug-sensitive human KB cells
[2] = tested on: Jurkat; experiment: Cytotoxicity against human Jurkat cells
[3] = Cytotoxicity against vincristine-resistant human KB/VJ300 cells

Q: With `CC(C)=C1CC[C@H]([C@H]2CC[C@@]3(C)[C@@H]4CC[C@H]5C(C)(C)[C@@H](O)C(=O)C[C@@]56C[C@@]46CC[C@]23C)[C@H](O)C1` [MONOCARPINE] as the compound, how does the IC50 [1] read?
A: > 5 µg/mL

Q: For `O=C1C=CC=C2C(=O)c3c4c(ccc3=C2N1)=CC=N4` [MONOMARGINE], which IC50 [2] is on record?
A: 0.7 µg/mL (≈ 2.82 µM)

Q: What about the IC50 [1] of the same compound?
A: 4.7 µg/mL (≈ 18.9 µM)

Q: And the IC50 [3]?
A: 3 µg/mL (≈ 12.1 µM)

Q: For `COc1cc2c(c3c1=CC=N3)C(=O)C1=CC=CC(=O)NC=21` [MONOMARGININE], which IC50 [2] is on record?
A: 0.4 µg/mL (≈ 1.44 µM)

Q: And the IC50 [1]?
A: 4 µg/mL (≈ 14.4 µM)

Q: What about the IC50 [3] of the same compound?
A: 2.6 µg/mL (≈ 9.34 µM)
